Data: patent publication US6770596B1, “Fused tricyclic compounds, process for their preparation, and herbicidal compositions containing them” (Ishihara Sangyo Kaisha Ltd., priority 2002, dated 2004)

Assays:
Format in all cases: in vivo
[1] = tested on: cocklebur (Xanthium strumariunt, XAS); assay: Post-emerge test, cocklebur; settings: 250 g ai/ha, 14 days after application, rating scale 0-100 (0 no damage, 100 complete death)
How it was run: (§1)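 Emerged seedlings, usually at 2-3 leaves after 8-21 days' growth in sandy loam, were treated with 8-1000 g ai/ha. Treatment was an acetone spray at 187 l/ha containing 0.25% v/v non-ionic surfactant. Assessment at 14 days used a 0 (no damage) to 100 (total death) scale.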

[2] = tested on: field corn (Zea mays L., var. Dekalb 535, CORN); assay: Post-emerge test, crop damage field corn
How it was run: as §1

[3] = tested on: lambsquarters (Chenopodium album, CHA); assay: Post-emerge test, lambsquarters; settings: 250 g ai/ha, 14 days after application, rating scale 0-100 (0 no damage, 100 complete death)
How it was run: as §1

[4] = tested on: velvetleaf (Abutilon theophrasti, ABT); assay: Post-emerge test, velvetleaf; settings: 250 g ai/ha, 14 days after application, rating scale 0-100 (0 no damage, 100 complete death)
How it was run: as §1

[5] = tested on: upland rice (Oryza sp., var.Tebonnet, RICE); assay: Pre-emerge test, crop damage upland rice
How it was run: (§2)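 Scores at 14 days after treatment use a 0–100 scale, where 0 is no damage and 100 is death of all plants. Treatments were acetone solutions sprayed at 8–1000 g ai/ha onto soil sown one day prior.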

[6] = tested on: cocklebur (Xanthium strumariunt, XAS); assay: Pre-emerge test, cocklebur; settings: 250 g ai/ha, 14 days after application, rating scale 0-100 (0 no damage, 100 complete death)
How it was run: (§3)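 Sandy loam soil mix, 10 cm pots, sowing 1 d before treatment; spray volume 187 l/ha, rates 8–1000 g ai/ha in acetone; 0–100 visual rating at 14 d.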

[7] = tested on: sicklepod (Cassia obtusifolia, CAO); assay: Pre-emerge test, sicklepod; settings: 250 g ai/ha, 14 days after application, rating scale 0-100 (0 no damage, 100 complete death)
How it was run: as §3

[8] = tested on: field corn (Zea mays L., var. Dekalb 535, CORN); assay: Pre-emerge test, crop damage field corn
How it was run: as §2

[9] = tested on: common ragweed (Ambrosia artemisiifolia L., AML); assay: Post-emerge test, common ragweed; settings: 250 g ai/ha, 14 days after application, rating scale 0-100 (0 no damage, 100 complete death)
How it was run: as §1

[10] = tested on: wheat (Triticum aestivum); assay: Pre-emerge test, crop damage wheat
How it was run: as §2

[11] = tested on: ivyleaf morningglory (Ipomoea hederacea, IPH); assay: Pre-emerge test, ivyleaf morningglory; settings: 250 g ai/ha, 14 days after application, rating scale 0-100 (0 no damage, 100 complete death)
How it was run: as §3

[12] = tested on: large crabgrass (Digitaria sanguinalis, DIS); assay: Post-emerge test, large crabgrass; settings: 250 g ai/ha, 14 days after application, rating scale 0-100 (0 no damage, 100 complete death)
How it was run: as §1

[13] = tested on: barnyardgrass (Echinachloa crus-galli, ECC); assay: Pre-emerge test, barnyardgrass; settings: 250 g ai/ha, 14 days after application, rating scale 0-100 (0 no damage, 100 complete death)
How it was run: as §3

[14] = tested on: ivyleaf morningglory (Ipomoea hederacea, IPH); assay: Post-emerge test, ivyleaf morningglory; settings: 250 g ai/ha, 14 days after application, rating scale 0-100 (0 no damage, 100 complete death)
How it was run: as §1

[15] = tested on: redroot pigweed (Amaranthus retroflexus, AMR); assay: Pre-emerge test, redroot pigweed; settings: 250 g ai/ha, 14 days after application, rating scale 0-100 (0 no damage, 100 complete death)
How it was run: as §3

[16] = tested on: velvetleaf (Abutilon theophrasti, ABT); assay: Pre-emerge test, velvetleaf; settings: 250 g ai/ha, 14 days after application, rating scale 0-100 (0 no damage, 100 complete death)
How it was run: as §3

[17] = tested on: wheat (Triticum aestivum); assay: Post-emerge test, crop damage wheat
How it was run: as §1

[18] = tested on: soybean (Glycine max L., var. Pella 86, SOY); assay: Post-emerge test, crop damage soybean
How it was run: as §1

[19] = tested on: green foxtail (Setaria viridis, SEV); assay: Post-emerge test, green foxtail; settings: 250 g ai/ha, 14 days after application, rating scale 0-100 (0 no damage, 100 complete death)
How it was run: as §1

[20] = tested on: large crabgrass (Digitaria sanguinalis, DIS); assay: Pre-emerge test, large crabgrass; settings: 250 g ai/ha, 14 days after application, rating scale 0-100 (0 no damage, 100 complete death)
How it was run: as §3

[21] = tested on: common ragweed (Ambrosia artemisiifolia L., AML); assay: Pre-emerge test, common ragweed; settings: 250 g ai/ha, 14 days after application, rating scale 0-100 (0 no damage, 100 complete death)
How it was run: as §3

[22] = tested on: johnsongrass (Sorghum halepense, SOH); assay: Pre-emerge test, johnsongrass; settings: 250 g ai/ha, 14 days after application, rating scale 0-100 (0 no damage, 100 complete death)
How it was run: as §3

[23] = tested on: lambsquarters (Chenopodium album, CHA); assay: Pre-emerge test, lambsquarters; settings: 250 g ai/ha, 14 days after application, rating scale 0-100 (0 no damage, 100 complete death)
How it was run: as §3

[24] = tested on: johnsongrass (Sorghum halepense, SOH); assay: Post-emerge test, johnsongrass; settings: 250 g ai/ha, 14 days after application, rating scale 0-100 (0 no damage, 100 complete death)
How it was run: as §1

[25] = tested on: soybean (Glycine max L., var. Pella 86, SOY); assay: Pre-emerge test, crop damage soybean
How it was run: as §2

[26] = tested on: barnyardgrass (Echinachloa crus-galli, ECC); assay: Post-emerge test, barnyardgrass; settings: 250 g ai/ha, 14 days after application, rating scale 0-100 (0 no damage, 100 complete death)
How it was run: as §1

[27] = tested on: sicklepod (Cassia obtusifolia, CAO); assay: Post-emerge test, sicklepod; settings: 250 g ai/ha, 14 days after application, rating scale 0-100 (0 no damage, 100 complete death)
How it was run: as §1

[28] = tested on: redroot pigweed (Amaranthus retroflexus, AMR); assay: Post-emerge test, redroot pigweed; settings: 250 g ai/ha, 14 days after application, rating scale 0-100 (0 no damage, 100 complete death)
How it was run: as §1

[29] = tested on: upland rice (Oryza sp., var.Tebonnet, RICE); assay: Post-emerge test, crop damage upland rice
How it was run: as §1

[30] = tested on: green foxtail (Setaria viridis, SEV); assay: Pre-emerge test, green foxtail; settings: 250 g ai/ha, 14 days after application, rating scale 0-100 (0 no damage, 100 complete death)
How it was run: as §3

[31] = var. Dekalb 535, Zea mays (field corn), in vivo, 14 days
[32] = var. Tebonnet, Oryza sp. (upland rice), in vivo, 14 days
[33] = Triticum aestivum (wheat), in vivo, 14 days
[34] = var. Pella 86, Glycine max (soybean), in vivo, 14 days
[35] = post-emerge, 250 g ai/ha, 14 days after application, rating scale 0-100 (0 no damage, 100 complete death)
[36] = pre-emerge, 250 g ai/ha, 14 days after application, rating scale 0-100 (0 no damage, 100 complete death)

CC1C(=O)Nc2c(-c3nn(C)c(OC(F)F)c3Cl)c(F)cc3c2N1C(=O)CO3 (stereo not drawn) [1-26, 8-[4-Chloro-5-(difluoromethoxy)-1-methyl-1H-pyrazole-3-yl)-9-fluoro-5-methyl-5H-pyrazino[1,2,3-de]-1,4-benzoxazine-3,6(2H, 7H)-dione]
90: Post-emerge crop damage RICE (phytotoxicity rating) [29, 32]
98: Pre-emerge crop damage WHEAT (phytotoxicity rating) [10, 33] | Pre-emerge crop damage SOY (phytotoxicity rating) [25, 34]
40: Post-emerge crop damage CORN (phytotoxicity rating) [2, 31] | Post-emerge Herbicidal Activity DIS (phytotoxicity rating) [12]
100: Post-emerge Herbicidal Activity XAS (phytotoxicity rating) [1] | Post-emerge Herbicidal Activity CHA (phytotoxicity rating) [3] | Post-emerge Herbicidal Activity ABT (phytotoxicity rating) [4] | Pre-emerge crop damage RICE (phytotoxicity rating) [5, 32] | Pre-emerge crop damage CORN (phytotoxicity rating) [8, 31] | Pre-emerge Herbicidal Activity IPH (phytotoxicity rating) [11] | Pre-emerge Herbicidal Activity ECC (phytotoxicity rating) [13] | Post-emerge Herbicidal Activity IPH (phytotoxicity rating) [14] | Pre-emerge Herbicidal Activity AMR (phytotoxicity rating) [15] | Pre-emerge Herbicidal Activity ABT (phytotoxicity rating) [16] | Post-emerge crop damage SOY (phytotoxicity rating) [18, 34] | Post-emerge Herbicidal Activity SEV (phytotoxicity rating) [19] | Pre-emerge Herbicidal Activity DIS (phytotoxicity rating) [20] | Pre-emerge Herbicidal Activity AML (phytotoxicity rating) [21] | Pre-emerge Herbicidal Activity SOH (phytotoxicity rating) [22] | Pre-emerge Herbicidal Activity CHA (phytotoxicity rating) [23] | Post-emerge Herbicidal Activity CAO (phytotoxicity rating) [27] | Post-emerge Herbicidal Activity AMR (phytotoxicity rating) [28] | Pre-emerge Herbicidal Activity SEV (phytotoxicity rating) [30]
60: Post-emerge crop damage WHEAT (phytotoxicity rating) [17, 33]
99: Pre-emerge Herbicidal Activity XAS (phytotoxicity rating) [6] | Pre-emerge Herbicidal Activity CAO (phytotoxicity rating) [7] | Post-emerge Herbicidal Activity AML (phytotoxicity rating) [9] | Post-emerge Herbicidal Activity ECC (phytotoxicity rating) [26]
80: Post-emerge Herbicidal Activity SOH (phytotoxicity rating) [24]

Cn1nc(-c2c(F)cc3c4c2NC(=O)C(C)(C)N4C(=O)CO3)c(Cl)c1OC(F)F [1-27]
60: Post-emerge crop damage CORN (phytotoxicity rating) [2, 35] | Post-emerge Herbicidal Activity DIS (phytotoxicity rating) [12]
98: Post-emerge Herbicidal Activity AML (phytotoxicity rating) [9]
100: Post-emerge Herbicidal Activity XAS (phytotoxicity rating) [1] | Post-emerge Herbicidal Activity CHA (phytotoxicity rating) [3] | Post-emerge Herbicidal Activity ABT (phytotoxicity rating) [4] | Pre-emerge Herbicidal Activity CAO (phytotoxicity rating) [7] | Pre-emerge Herbicidal Activity IPH (phytotoxicity rating) [11] | Pre-emerge Herbicidal Activity ECC (phytotoxicity rating) [13] | Post-emerge Herbicidal Activity IPH (phytotoxicity rating) [14] | Pre-emerge Herbicidal Activity AMR (phytotoxicity rating) [15] | Pre-emerge Herbicidal Activity ABT (phytotoxicity rating) [16] | Post-emerge crop damage SOY (phytotoxicity rating) [18, 35] | Post-emerge Herbicidal Activity SEV (phytotoxicity rating) [19] | Pre-emerge Herbicidal Activity DIS (phytotoxicity rating) [20] | Pre-emerge Herbicidal Activity AML (phytotoxicity rating) [21] | Pre-emerge Herbicidal Activity SOH (phytotoxicity rating) [22] | Pre-emerge Herbicidal Activity CHA (phytotoxicity rating) [23] | Post-emerge Herbicidal Activity ECC (phytotoxicity rating) [26] | Post-emerge Herbicidal Activity CAO (phytotoxicity rating) [27] | Post-emerge Herbicidal Activity AMR (phytotoxicity rating) [28] | Pre-emerge Herbicidal Activity SEV (phytotoxicity rating) [30]
35: Pre-emerge crop damage SOY (phytotoxicity rating) [25, 36]
90: Post-emerge crop damage RICE (phytotoxicity rating) [29, 35]
75: Post-emerge crop damage WHEAT (phytotoxicity rating) [17, 35] | Post-emerge Herbicidal Activity SOH (phytotoxicity rating) [24]
85: Pre-emerge crop damage RICE (phytotoxicity rating) [5, 36]
55: Pre-emerge crop damage CORN (phytotoxicity rating) [8, 36]
80: Pre-emerge Herbicidal Activity XAS (phytotoxicity rating) [6] | Pre-emerge crop damage WHEAT (phytotoxicity rating) [10, 36]

CCC1C(=O)Nc2c(-c3nn(C)c(OC(F)F)c3Cl)c(F)cc3c2N1C(=O)CO3 (stereo not drawn) [1-28]
50: Post-emerge crop damage WHEAT (phytotoxicity rating) [17, 35]
65: Pre-emerge crop damage WHEAT (phytotoxicity rating) [10, 36]
98: Pre-emerge Herbicidal Activity AML (phytotoxicity rating) [21]
15: Post-emerge Herbicidal Activity DIS (phytotoxicity rating) [12]
85: Pre-emerge crop damage CORN (phytotoxicity rating) [8, 36]
75: Pre-emerge crop damage RICE (phytotoxicity rating) [5, 36]
99: Post-emerge Herbicidal Activity ECC (phytotoxicity rating) [26]
40: Pre-emerge crop damage SOY (phytotoxicity rating) [25, 36]
25: Post-emerge crop damage CORN (phytotoxicity rating) [2, 35]
100: Post-emerge Herbicidal Activity XAS (phytotoxicity rating) [1] | Post-emerge Herbicidal Activity CHA (phytotoxicity rating) [3] | Post-emerge Herbicidal Activity ABT (phytotoxicity rating) [4] | Pre-emerge Herbicidal Activity XAS (phytotoxicity rating) [6] | Pre-emerge Herbicidal Activity CAO (phytotoxicity rating) [7] | Post-emerge Herbicidal Activity AML (phytotoxicity rating) [9] | Pre-emerge Herbicidal Activity IPH (phytotoxicity rating) [11] | Pre-emerge Herbicidal Activity ECC (phytotoxicity rating) [13] | Post-emerge Herbicidal Activity IPH (phytotoxicity rating) [14] | Pre-emerge Herbicidal Activity AMR (phytotoxicity rating) [15] | Pre-emerge Herbicidal Activity ABT (phytotoxicity rating) [16] | Post-emerge crop damage SOY (phytotoxicity rating) [18, 35] | Post-emerge Herbicidal Activity SEV (phytotoxicity rating) [19] | Pre-emerge Herbicidal Activity DIS (phytotoxicity rating) [20] | Pre-emerge Herbicidal Activity SOH (phytotoxicity rating) [22] | Pre-emerge Herbicidal Activity CHA (phytotoxicity rating) [23] | Post-emerge Herbicidal Activity CAO (phytotoxicity rating) [27] | Post-emerge Herbicidal Activity AMR (phytotoxicity rating) [28] | Post-emerge crop damage RICE (phytotoxicity rating) [29, 35] | Pre-emerge Herbicidal Activity SEV (phytotoxicity rating) [30]
80: Post-emerge Herbicidal Activity SOH (phytotoxicity rating) [24]
